Measured values as given in US20030134901A1, “Lipoxin compounds and their use in treating cell proliferative disorders” (priority 1993, published 2003).

Key:
[1] = tested on: human skin fibroblasts; test: Fibroblast proliferation, MTT assay; type: cell-based; conditions: 100 nM, n=3
Text: Human type II epithelial A549 cells from human lung carcinoma and normal human skin fibroblast (breast) were obtained from the American Type Culture Collection (Rockville, Md.). The A549 cell line originated from a human alveolar cell carcinoma and was a useful cell line because it was easily assessable and could be maintained in culture without contaminating tissue macrophages. (Lieber, M., et al (1976) A continuous tumor-cell line from a human lung carcinoma with properties of type II alveolar epithelial cells. Int. J Cancer Fibroblasts were utilized within their limited window of viability and their passage numbers were recorded (results are reported for cells from 3-5 passages). Epithelial A549 cells were seeded into T-75 cm^2 tissue culture flasks and maintained in F-12K medium supplemented with 10% heat-inactivated FBS, penicillin (50 U/mL) and streptomycin (50 (g/mL). Human PMN from healthy donors who had not taken ASA or other medications for at least two weeks were obtained by Ficoll-Hypaque gradient centrifugation and dextran sedimentation, (Böyum A. (1968) Isolation of mononuclear cells and granulocytes from human blood. […] Viability of A549 cells and PMN was determined by their ability to exclude trypan blue and were 95±2 and 97±1%, respectively.
A microculture 3,(4,5-dimethylthiazoyl-2-yl) 2,5 (diphenyl-tetrazolium bromide) (MTT) assay, (Marshall, N. J., et al. (1995) A critical assessment of the use of microculture tetrazolium assays to measure cell growth and function. Growth Regul. 5: 69-84.), was used to examine the actions of LXs and other eicosanoids on cell proliferation. A549 cells and fibroblasts from exponential-phase maintenance cultures were counted and dispensed within replicate 96-well culture plates in 100 μl volumes of medium (˜2000 cells/well). […] Dye solution was aspirated, wells were washed once with HBSS and dye taken up by the cells was extracted in 100 μl of isopropyl alcohol:1 N HCl (96:4, v/v) and quantitated at 570 nm using a microplate reader (Molecular Devices, Menlo Park, Calif.). […]

[2] = tested on: A549 cells; test: A549 cell proliferation, MTT assay; type: cell-based, human
Experimental: A microculture 3,(4,5-dimethylthiazoyl-2-yl) 2,5 (diphenyl-tetrazolium bromide) (MTT) assay, (Marshall, N. J., et al. (1995) A critical assessment of the use of microculture tetrazolium assays to measure cell growth and function. Growth Regul. 5: 69-84.), was used to examine the actions of LXs and other eicosanoids on cell proliferation. A549 cells and fibroblasts from exponential-phase maintenance cultures were counted and dispensed within replicate 96-well culture plates in 100 μl volumes of medium (˜2000 cells/well). Following 24 hours at 37° C., the culture medium was removed, and fresh medium (100 μl) containing either the compounds (5-1000 nM) or vehicle (medium plus 0.15% ethanol) was added to 4 replicates for each condition studied and the culture plates were then incubated for up to 96 hours at 37° C. in a 5% CO2 atmosphere. At the end of this period, 25 μl of freshly prepared MTT in HBSS (5 mg/ml) was added to the wells and the plates were incubated for 4 hours at 37° C. Dye solution was aspirated, wells were washed once with HBSS and dye taken up by the cells was extracted in 100 μl of isopropyl alcohol:1 N HCl (96:4, v/v) and quantitated at 570 nm using a microplate reader (Molecular Devices, Menlo Park, Calif.). In some experiments, cells were grown in 12-well culture plates, treated as above and enumerated using a Neubauer hemocytometer. Viability was assessed routinely using trypan blue exclusion assay. For the A549 cells and fibroblasts, a linear relation was established for the MTT values and cell number within the range of the experiments shown (r=0.995, P<0.005). A549 cells grown for 72 hours in the presence of the compounds (5-1000 nM) or vehicle (0.15% EtOH) were lysed with 0.25 N NaOH and the cellular protein content was determined by applying the Bio-Rad (Richmond, Calif.) microassay method using bovine serum albumin as standard. The mean cellular protein content in resting A549 cells was 46.6±1.5 pg/cell.

[3] = molecular target: T1, LXA4 specific binding sites of differentiated HL-60 cells (Homo sapiens, UniProt P25090); test: 3H-LXA4 specific binding to differentiated HL-60 cells; conditions: competition, competitor 300 nM where printed
T1 construct: endogenous in cells; host or cells: HL-60 cells differentiated with DMSO, retinoic acid or PMA; intact cells
T1 sequence (P25090 1-351): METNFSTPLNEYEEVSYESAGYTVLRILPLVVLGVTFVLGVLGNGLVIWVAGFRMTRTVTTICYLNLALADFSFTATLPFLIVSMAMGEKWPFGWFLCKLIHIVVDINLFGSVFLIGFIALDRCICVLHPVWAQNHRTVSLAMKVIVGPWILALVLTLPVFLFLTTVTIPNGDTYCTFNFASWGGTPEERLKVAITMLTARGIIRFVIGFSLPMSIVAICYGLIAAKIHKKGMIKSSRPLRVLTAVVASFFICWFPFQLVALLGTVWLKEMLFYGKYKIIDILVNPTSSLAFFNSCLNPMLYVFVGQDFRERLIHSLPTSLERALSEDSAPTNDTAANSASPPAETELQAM
Experimental: Preparation of [11,12-^3H]LXA4. Tritiation of 11,12-acetylenic LXA4 methyl ester was carried out under a custom tritiation service (NET-259:92-2326) by New England Nuclear (Boston, Mass.). Briefly, 11,12-acetylene methyl ester was characterized by UV absorbance and reverse-phase HPLC as in (Nicolaou, K. C. et al. (1985) J. Am. Chem. Soc. 107:7515) and exposed to tritium atmosphere in methylene chloride at room temperature. This incubation was stirred in the presence of Lindlar catalyst (1.0 mg from Fluka Chemicals) for˜1 h. The resulting mixture was stored in methanol and isolated using RP-HPLC. Tritiated products were chromatographed as methyl esters utilizing a gradient HPLC system equipped with a photodiode array rapid spectral detector (Serhan, C. N., Methods in Enzymology: Arachidonate Related Lipid Mediators, in Murphy R. C., Fitzpatrick, F. (eds.), vol. 187. Orlando, Fla., Academic, (1990), p. 167). This mixture contained both [11,12-^3H]LXA4 and [11,12-^3H]-11-trans-LXA4 methyl esters (˜1:3 ratio) as determined by coelution with synthetic standards. After RP-HPLC, fractions containing [11,12-^3H]LXA4 were collected, and extracted into ethyl acetate. The free acid was prepared by LiOH saponification (Fiore, S. et al. (1992) J. Biol. Chem. 267:16168). Material from these fractions, when injected into UV-electrochemical detection HPLC, gave greater than 90% of radioactivity associated with a tetraene-containing product that coeluted with synthetic LXA4. Materials that eluted with the retention time of authentic LXA4 in two HPLC systems were taken for binding experiments. The specific activity calculated for [11,12-^3H]LXA4 was 40.5 Ci/mmole.
Cell cultures and differentiation. HL-60 cells were seeded in RPMI medium supplemented with 100 U/ml penicillin, 100 μg/ml streptomycin, and 10% fetal calf serum (Hyclone, Logan, Utah), incubated at 37° C. with 5% CO2 atmosphere in 250 ml flasks. Individual flasks containing ˜[…] next received dimethyl sulfoxide (DMSO) (1.12% v/v, 120 h) or retinoic acid (RA) (1 μM, 120 h) or phorbol myristate acetate (PMA) (20 nM, 48 h). Before performing binding assays, cells were washed twice in phosphate buffered saline (PBS), Ca^2+- and Mg^2+-free, enumerated and suspended at 20×10^6 cells/ml in Tris buffer (10 mM), pH 7.4 (Fiore, S. et al.(1992) J. Biol. Chem. 267:16168). Nitro blue tetrazolium reduction was performed to monitor induction of polymorphonuclear phenotype as in (Imaizumi, M. and Breitman, T. R. (1986) Blood 67:1273), and cell adherence was determined for induction of macrophage-like phenotype (Collins, S. J. (1987) Blood 70:1273). Human umbilical vein endothelial cells (HUVEC) maintained in culture third passage were obtained from Dr. M. Gimbrone (Brigham and Women's Hospital Department of Pathology).
Ligand binding. ^3H-LXA4 and ^3H-LTB4 binding was performed essentially as in Fiore, S. et al.(1992) J. Biol. Chem. 267:16168. After suspending cells in Tris buffer 10 mM (pH 7.4, Ca^2+ 2.5 mM, Mg^2+ 1.2 mM), aliquots (0.5 ml) were incubated (20 min at 4° C.) with ^3H- ligands alone (0.3 nM) or in the presence of increasing concentrations of homoligands or other compounds (3-300 nM). The incubations were rapidly centrifuged (60 sec, 12,000 g) on silicon oil (d=1.028), and cell-associated radioactivity was determined by liquid scintillation counting (Wallac 1409, Pharmacia, Piscataway, N.J.). Binding experiments with HUVEC cells were performed in 12 well plates with 3.5×10^5 cells/well. After 10 min, wells were washed twice with PBS and cell-associated label was recovered by adding glacial acetic acid (0.5 ml). Results obtained from these assays were submitted for further analysis using the Ligand program (Elsevier-Biosoft, Cambridge, UK).

## CCCCC[C@H](O)[C@H](O)/C=C/C=C/C=C\C=C\[C@@H](O)CCCC(=O)O [LXB4, (5S, 14R, 15S)-trihydroxy-6E, 8Z, 10E, 12E-eicosatetraenoic acid]
[1]
  inhibition of proliferation of fibroblasts: 38.0%
[2]; 1 μM, after 72 and 96 hours of treatment
  inhibition of A549 cell proliferation over time: inhibited A549 cell proliferation
[2]; 10^−7 M, 72 hours at 37° C., mean ± SEM, 3 to 7 experiments
  % inhibition: 30.0 ± 8.5%
[2]; concentrations of 0.5 and 1 μM, 72 hours
  times more active than either LXA4 or dexamethasone: 3 times
[2]; equimolar levels (100 nM), Table 1
  inhibition proliferation: ~34%
[3]
  displacement of 3H-LXA4 specific binding: Neither LXB4, LTB4, nor trihydroxyheptanoic acid (methyl ester) (300 nM) were able to displace
